Measurements: PMC3566779 (The Journal of neuroscience : the official journal of the …, 2012)

Assays:
[1] = test system: Wistar rats; settings: TRPV1 antagonist; ref Garami et al., 2010; Steiner et al., 2007; cited from earlier work
[2] = biological target: TRPV1 (Homo sapiens, UniProt Q8NER1); experiment: TRPV1 assay, capsaicin activation; assay type: cell-based
[3] = test system: Trpm8−/− mice; experiment: Abdominal Tb in Trpm8−/− mice, telemetry setup; assay type: in vivo, mouse; settings: Ta 26°C
[4] = test system: Trpm8+/+ mice; experiment: Abdominal Tb in Trpm8+/+ mice, telemetry setup; assay type: in vivo, mouse; settings: Ta 26°C
[5] = test system: other TRP channels; experiment: TRP selectivity assays in CHO cells; assay type: cell-based; settings: read-out: IC50, block of other TRP channels
[6] = test system: Wistar rats; experiment: Deep; assay type: in vivo, rat
[7] = test system: Wistar rats; experiment: BAT thermometry; assay type: in vivo, rat; settings: 1 mg/kg i.v. at 32°C
[8] = test system: native TRPM8 channels in murine primary sensory neurons; experiment: Ratiometric Ca2+ imaging of trigeminal or dorsal root ganglion neurons; assay type: cell-based, mouse
[9] = test system: Wistar rats; experiment: Colonic Tb and oxygen consumption in rats, respirometry setup; assay type: in vivo, rat; settings: 6 mg/kg i.v. over 20 min, Ta 19°C
[10] = test system: c-Fos expression in the lateral parabrachial nucleus; experiment: Cold-induced c-Fos immunohistochemistry in the lateral parabrachial nucleus; assay type: in vivo, rat; settings: rats, 6 mg/kg i.v. pretreatment, 2-h cold exposure (4°C)
[11] = biological target: rat TRPM8 (Rattus norvegicus, UniProt Q8R455); experiment: Aequorin luminescence Ca2+ assay, CHO cells stably expressing rat TRPM8; assay type: cell-based
rat TRPM8, sequence (Q8R455 whole entry): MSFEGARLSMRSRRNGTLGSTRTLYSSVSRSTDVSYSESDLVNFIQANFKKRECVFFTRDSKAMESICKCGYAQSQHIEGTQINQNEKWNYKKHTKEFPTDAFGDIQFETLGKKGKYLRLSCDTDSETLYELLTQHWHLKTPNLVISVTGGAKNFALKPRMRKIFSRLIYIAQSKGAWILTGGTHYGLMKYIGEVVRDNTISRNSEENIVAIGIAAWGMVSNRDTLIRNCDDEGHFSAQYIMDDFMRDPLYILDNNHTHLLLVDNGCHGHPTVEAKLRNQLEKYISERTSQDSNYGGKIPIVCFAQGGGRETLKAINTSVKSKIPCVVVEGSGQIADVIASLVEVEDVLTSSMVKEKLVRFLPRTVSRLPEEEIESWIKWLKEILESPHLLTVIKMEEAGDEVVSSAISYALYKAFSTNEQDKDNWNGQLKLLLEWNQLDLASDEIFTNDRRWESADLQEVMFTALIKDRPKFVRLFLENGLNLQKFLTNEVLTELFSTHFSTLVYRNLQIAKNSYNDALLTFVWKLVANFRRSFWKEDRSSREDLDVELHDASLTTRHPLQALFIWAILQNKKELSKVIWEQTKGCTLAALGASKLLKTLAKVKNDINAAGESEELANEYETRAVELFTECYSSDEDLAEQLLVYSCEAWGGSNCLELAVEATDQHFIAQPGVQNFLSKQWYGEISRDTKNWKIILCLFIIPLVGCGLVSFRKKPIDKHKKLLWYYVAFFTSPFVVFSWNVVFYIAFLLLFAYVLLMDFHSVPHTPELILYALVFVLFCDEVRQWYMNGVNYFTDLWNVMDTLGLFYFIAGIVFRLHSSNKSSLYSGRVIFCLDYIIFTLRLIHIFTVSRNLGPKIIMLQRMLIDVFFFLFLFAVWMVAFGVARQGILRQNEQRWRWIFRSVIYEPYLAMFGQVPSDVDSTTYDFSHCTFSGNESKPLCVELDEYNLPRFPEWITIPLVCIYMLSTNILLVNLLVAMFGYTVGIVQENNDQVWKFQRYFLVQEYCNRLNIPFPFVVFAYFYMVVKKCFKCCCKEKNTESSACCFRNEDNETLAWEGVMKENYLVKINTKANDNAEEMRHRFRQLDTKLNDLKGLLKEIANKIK

[12] = test system: Wistar rats; experiment: Preferred Ta and abdominal Tb in rats, thermogradient setup; assay type: in vivo, rat
[13] = biological target: TRPV4 (Homo sapiens, UniProt Q9HBA0); experiment: TRPV4 aequorin assay, 4α-PDD activation; assay type: cell-based; settings: read-out: IC50 for TRPV4; 1 μM 4α-PDD as agonist
TRPV4, sequence (Q9HBA0 whole entry, species assumed): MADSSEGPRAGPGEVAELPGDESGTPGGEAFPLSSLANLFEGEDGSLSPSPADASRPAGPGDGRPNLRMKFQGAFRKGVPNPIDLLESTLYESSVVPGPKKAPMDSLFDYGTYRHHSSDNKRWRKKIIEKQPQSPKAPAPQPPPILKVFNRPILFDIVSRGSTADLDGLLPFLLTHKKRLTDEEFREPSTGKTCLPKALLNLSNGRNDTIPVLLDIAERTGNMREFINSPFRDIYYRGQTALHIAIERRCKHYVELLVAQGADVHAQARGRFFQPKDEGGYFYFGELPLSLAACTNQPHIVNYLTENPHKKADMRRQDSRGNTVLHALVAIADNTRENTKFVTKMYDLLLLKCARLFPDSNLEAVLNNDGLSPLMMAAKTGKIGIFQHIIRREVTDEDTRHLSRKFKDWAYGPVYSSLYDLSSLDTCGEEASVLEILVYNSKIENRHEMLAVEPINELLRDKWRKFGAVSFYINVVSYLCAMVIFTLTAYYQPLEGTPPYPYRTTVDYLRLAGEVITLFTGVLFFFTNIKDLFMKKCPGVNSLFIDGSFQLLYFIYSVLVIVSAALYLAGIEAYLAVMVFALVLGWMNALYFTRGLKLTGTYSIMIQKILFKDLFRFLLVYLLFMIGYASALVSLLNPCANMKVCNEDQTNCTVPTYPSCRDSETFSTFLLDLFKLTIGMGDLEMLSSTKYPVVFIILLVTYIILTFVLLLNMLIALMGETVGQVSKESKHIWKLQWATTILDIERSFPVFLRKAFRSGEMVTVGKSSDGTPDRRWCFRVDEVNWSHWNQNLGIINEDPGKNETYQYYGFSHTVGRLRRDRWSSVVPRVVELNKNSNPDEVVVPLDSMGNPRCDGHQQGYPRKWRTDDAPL

[14] = biological target: TRPA1 (Homo sapiens, UniProt O75762); experiment: TRPA1 aequorin assay, allylisothiocyanate activation; assay type: cell-based; settings: read-out: IC50 for TRPA1; 80 μM allylisothiocyanate as agonist
TRPA1, sequence (O75762 whole entry, species assumed): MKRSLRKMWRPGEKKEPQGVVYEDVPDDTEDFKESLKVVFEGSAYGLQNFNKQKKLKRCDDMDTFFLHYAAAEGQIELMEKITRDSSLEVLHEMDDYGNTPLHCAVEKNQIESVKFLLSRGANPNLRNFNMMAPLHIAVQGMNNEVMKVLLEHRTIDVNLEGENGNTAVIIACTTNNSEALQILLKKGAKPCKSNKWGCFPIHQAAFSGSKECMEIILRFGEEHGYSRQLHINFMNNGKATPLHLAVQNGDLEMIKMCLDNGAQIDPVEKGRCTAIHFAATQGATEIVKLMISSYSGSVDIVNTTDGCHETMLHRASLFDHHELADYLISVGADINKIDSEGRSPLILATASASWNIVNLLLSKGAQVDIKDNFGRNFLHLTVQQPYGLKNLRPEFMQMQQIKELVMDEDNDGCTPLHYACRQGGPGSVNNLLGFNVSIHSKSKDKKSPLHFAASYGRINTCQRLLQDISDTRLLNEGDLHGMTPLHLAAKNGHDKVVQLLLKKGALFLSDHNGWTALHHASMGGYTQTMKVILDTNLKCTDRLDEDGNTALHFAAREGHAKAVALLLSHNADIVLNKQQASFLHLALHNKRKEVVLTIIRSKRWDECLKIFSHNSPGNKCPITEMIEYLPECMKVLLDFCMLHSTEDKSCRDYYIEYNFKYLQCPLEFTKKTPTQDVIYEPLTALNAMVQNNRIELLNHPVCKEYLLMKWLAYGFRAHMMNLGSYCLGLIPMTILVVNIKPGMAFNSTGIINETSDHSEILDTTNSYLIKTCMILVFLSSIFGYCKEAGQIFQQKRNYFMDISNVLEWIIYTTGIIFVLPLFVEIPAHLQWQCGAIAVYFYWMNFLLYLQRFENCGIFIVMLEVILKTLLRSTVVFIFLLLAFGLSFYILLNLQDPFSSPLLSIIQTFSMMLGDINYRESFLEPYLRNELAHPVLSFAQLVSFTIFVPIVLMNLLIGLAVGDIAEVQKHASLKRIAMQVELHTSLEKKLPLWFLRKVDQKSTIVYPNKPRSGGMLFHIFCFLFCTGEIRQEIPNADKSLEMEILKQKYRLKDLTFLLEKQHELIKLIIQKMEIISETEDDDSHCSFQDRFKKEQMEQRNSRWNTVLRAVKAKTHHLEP

TRPV1, sequence (Q8NER1 whole entry, species assumed): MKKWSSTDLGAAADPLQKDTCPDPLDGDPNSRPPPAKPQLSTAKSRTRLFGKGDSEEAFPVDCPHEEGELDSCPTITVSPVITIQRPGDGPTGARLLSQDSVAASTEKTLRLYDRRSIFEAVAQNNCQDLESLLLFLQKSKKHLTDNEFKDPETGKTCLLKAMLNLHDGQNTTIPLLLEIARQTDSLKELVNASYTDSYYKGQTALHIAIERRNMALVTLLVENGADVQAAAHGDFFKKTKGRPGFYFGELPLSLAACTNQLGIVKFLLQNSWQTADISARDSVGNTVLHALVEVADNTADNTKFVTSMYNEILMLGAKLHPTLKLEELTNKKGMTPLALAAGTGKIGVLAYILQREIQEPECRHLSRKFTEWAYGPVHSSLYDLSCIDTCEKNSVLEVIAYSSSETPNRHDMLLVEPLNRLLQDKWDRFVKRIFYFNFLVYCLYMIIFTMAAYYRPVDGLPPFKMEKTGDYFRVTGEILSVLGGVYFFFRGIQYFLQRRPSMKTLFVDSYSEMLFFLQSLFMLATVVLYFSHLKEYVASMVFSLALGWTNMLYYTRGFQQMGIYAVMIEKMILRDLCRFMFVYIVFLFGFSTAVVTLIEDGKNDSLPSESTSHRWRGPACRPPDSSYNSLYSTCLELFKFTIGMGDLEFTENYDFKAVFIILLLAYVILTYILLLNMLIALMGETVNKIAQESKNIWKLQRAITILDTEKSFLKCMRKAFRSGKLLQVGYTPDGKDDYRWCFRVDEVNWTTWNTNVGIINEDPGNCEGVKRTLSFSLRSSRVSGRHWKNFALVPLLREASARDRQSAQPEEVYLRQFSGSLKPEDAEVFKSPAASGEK

## O=C(/C=C/c1ccc(C(F)(F)F)nc1N1CCCCC1)Nc1cccc2c1CC(O)CC2 (stereo not drawn) [AMG0347]
[1]
  Thermal response: cause hyperthermia

## CC(C)(C)c1ccc(/C=C/C(=O)Nc2ccc3c(c2)OCCO3)cc1 [AMG9810, (E)-3-(4-t-butylphenyl)-N-(2,3-dihydrobenzo[b][1,4]dioxin-6-yl)acrylamide]
[2]
  IC50: 86 nM

## COc1cc(CN(CCN)C(=O)c2cccs2)ccc1OCc1ccccc1.Cl [M8-B, N-(2-aminoethyl)-N-(4-(benzyloxy)-3-methoxybenzyl)thiophene-2-carboxamide hydrochloride]
[3]; 6 mg/kg i.p.
  Effect on abdominal Tb: not affected
[4]; 6 mg/kg i.p.
  Decrease in abdominal Tb: ~ 0.8 °C
[5]
  IC50: > 20 µM
[6]; 1 mg/kg i.v. at 32°C then 21°C, controls HLI ~0
  Heat loss index (HLI) when Tb was 37.5°C: ~ 0.4
[6]; 1 mg/kg i.v. at Ta 32°C, then transferred to 11°C
  Inter-treatment Tb difference (M8-B vs vehicle): exceeded 1 °C
[6]; 1 mg/kg i.v. at Ta 32°C, then transferred to 14°C
  Inter-treatment Tb difference (M8-B vs vehicle): exceeded 1 °C
[6]; 1 mg/kg i.v. at Ta 32°C, then transferred to 21°C
  Delay of the development of tail skin vasoconstriction: ~ 5 min
[6]; 1 mg/kg i.v. over 40 min at Ta 32°C, then transferred to 21°C
  Effect on Tb: significant decrease in Tb
[6]; 1 mg/kg i.v., constant Ta 15°C
  Changes in Tb compared to vehicle: no significant changes
[6]; 1 mg/kg i.v., constant Ta 19°C, data not shown
  Effect on Tb: did not affect Tb
[6]; 1 mg/kg i.v., constant Ta 32°C
  Changes in Tb compared to vehicle: no significant changes
[6]; 1 mg/kg i.v., experiments of Fig. 6B–H
  Tail Tsk at which M8-B caused a decrease in Tb (threshold, two-line model): ≤ 23.2 °C
[6]; 2.5 mg/kg intracerebroventricularly, Ta 19°C
  Effect on Tb: no effect
[6]; 2.5 mg/kg intrathecally, Ta 19°C
  Effect on Tb: no effect
[6]; 6 mg/kg i.v. over 20 min, Ta 19°C
  Decrease in colonic Tb compared to vehicle: ~ 0.9 °C
[6]; 6 mg/kg intrathecally, Ta 19°C
  Effect on Tb: effective in decreasing Tb
[6]; i.v., Ta 19°C
  Threshold intravenous dose for a significant decrease in deep Tb: 2.5 mg/kg
[7]; then 11°C, p = 0.105
  BAT thermogenic response to cold: tended to be less pronounced
[7]; then transferred to 11°C, at 150 min
  Nadir of Tb: ~ 36.2 °C
[8]; M8-B 10 μM, cold (15°C), 19 ± 3% without treatment
  Number of cold-responsive neurons: 4 ± 1%
[8]; menthol 250 μM
  Number of neurons responsive to menthol: significantly decreased
[9]; from 19 ml/kg/min
  VO2 within the first hour after infusion: ~15 mL/kg/min
[9]; from ~37.3°C
  Colonic Tb within the first hour after infusion: ~ 36.5 °C
[10]; p = 0.027
  Decrease in number of cold-induced c-Fos-positive neurons, LPBE: 48%
[10]; p = 0.178
  Decrease in number of cold-induced c-Fos-positive neurons, LPBC: 41%
[11]; IC50, inhibition of rat TRPM8 activation by cold, cold (10°C)
  IC50: 7.8 ± 1.1 nM
[11]; IC50, inhibition of rat TRPM8 activation by icilin, icilin (1 μM)
  IC50: 26.9 ± 12.1 nM
[12]; rats, M8-B 1 mg/kg i.v. pretreatment, p = 0.0009
  Effect on hyperthermic response to menthol: significantly attenuated
[12]; rats, M8-B 1 mg/kg i.v. pretreatment, p = 0.096
  Effect on warmth-seeking response to menthol: tended to attenuate

## C=C(C)[C@]12C[C@@H](C)[C@@]34O[C@](Cc5ccccc5)(O[C@@H]1[C@@H]3C=C(COC(=O)Cc1ccc(O)c(OC)c1)C[C@]1(O)C(=O)C(C)=C[C@@H]41)O2 [RTX, resiniferatoxin, reference compound]
[3]; 150 ng/kg i.p.
  Decrease in Tb: ~ 2.5 °C
[4]; 150 ng/kg i.p.
  Effect on abdominal Tb: readily produces hypothermia

## CC1CCC(C(C)C)C(O)C1 (stereo not drawn) [menthol, reference compound]
[12]; rats pre-infused with vehicle, 10 g of 0.5% menthol ointment epidermally
  Rise in Tb after menthol: ~ 1 °C

## Cl.Cl.Cl.Cl.Cl.Cl.N.N.N.N.N.N.N.N.N.N.N.N.N.N.[O-2].[O-2].[Ru+3].[Ru+3].[Ru+4] [ruthenium red]
[13]
  IC50: 24 nM
[14]
  IC50: 367 nM
